Earlier results on one compound are cited in US20240041838A1, “METHODS AND COMPOSITIONS FOR INHIBITION OF NEUTROPHIL RECRUITMENT IN MYCOCARDIAL ISCHEMIA-REPERFUSION INJURY” (University of Connecticut, priority 2022, published 2024).

The test system of this data set is I/R-induced ventricular arrhythmia. The note with it: reported; cited from earlier work.

Consider `CCN(CC)CCCC(C)Nc1nc(C)cc(Nc2ccc3nc(C)cc(N)c3c2)n1` (stereo not shown) [NSC23766], for which the I/R-induced ventricular arrhythmia result was “decreased”.
